Experimental data taken from patent US6872805B2 (Bristol-Myers Squibb Company, priority 2000, dated 2005).

Key:
[1] = target: HCV NS3/4A protease complex (Hepatitis C virus genotype 1a, UniProt P27958, C1454S/C1711G); experiment: Recombinant HCV NS3/4A protease complex FRET peptide assay (strain not stated); assay type: biochemical; conditions: IC50, NS3/4A protease enzyme assay, strain not stated; activity ranges
[2] = test system: HCV replicon in Huh7 cells; experiment: HCV replicon cell-based assay; parameters: species or system HCV strain 1B; conditions: Hepatitis C virus, Huh-7, 96 h; HCV replicon, Huh7 cells, 4 days; activity ranges; read-out: EC50
From the text: An HCV replicon whole cell system was established as described by Lohmann V, Korner F, Koch J, Herian U, Theilmann L, Bartenschlager R., Science 285(5424):110-3 (1999). This system enabled us to evaluate the effects of our HCV Protease compounds on HCV RNA replication. Briefly, using the HCV strain 1B sequence described in the Lohmann paper (Assession number:AJ238799), an HCV cDNA was generated encoding the 5′ internal ribosome entry site (IRES), the neo gene, the EMCV-IRES and the HCV nonstructural proteins, NS3-NS5B, and 3′ NTR. […] Resulting cell lines were characterized for positive and negative RNA production and protein production over time.
Huh7 cells, constitutively expressing the HCV replicon, were grown in DMEM containing 10% FCS (Fetal calf serum) and 1 mg/ml G418 (Gibco-BRL). Cells were seeded the night before (1.5×10^4 cells/well) in 96-well tissue-culture sterile plates. Compound was prepared in DMEM containing 4% FCS, 1:100 Penicillin/Streptomysin, 1:100 L-glutamine and 0.5% DMSO. Compound/DMSO mixes were added to the cells and incubated for 4 days at 37° C. After 4 days, cells were either lyzed using the Rneasy kit (Qiagen) to isolate and purify RNA for an EC50 determination or assessed for cytotoxicity using alamar Blue (Trek Diagnotstic Systems) for a CC50 reading. For an EC50 determination, purified total RNA was normalized using RiboGreen (Jones L J, Yue S T, Cheung C Y, Singer V L, Anal. Chem., 265(2):368-74 (1998)) and relative quantitation of HCV RNA expression assessed using the Taqmann procedure (Kolykhalov A A, Mihalik K, Feinstone S M, Rice C M, Journal of Virology 74, 2046-2051 (2000)). Briefly, RNA made to a volume of 5 μl (≦1 ng) was added to a 20 μl Ready-Mix containing the following: 5×EZ rTth buffer, 3 mM MnOAc2, 3 mM dNTPs, 200 nM forward primer, 600 nM reverse primer, 100 nM probe and rTth polymerase. Samples containing known concentrations of HCV RNA transcript were run as standards. Using the following cycling protocol (95° C., 1 min; 60° C., 0.5 min; 95° C., 2 min; 40 cycles of 94° C., 0.5 min, 60° C.; 1 min; and completing with 60° C., 10 min), HCV RNA expression was quantitated as described in the Perkin Elmer manual. The toxicity of compound (CC50) was determined by adding 1/10th volume of alamar Blue to the media incubating the cells. After 4 hr, the fluorescence signal from each well was read, with an excitation wavelength at 530 nm and an emission wavelength of 580 nm, using the Cytofluor Series 4000 (Perspective Biosystems).

HCV NS3/4A protease complex, sequence (P27958 1027-1711, stated change not applied): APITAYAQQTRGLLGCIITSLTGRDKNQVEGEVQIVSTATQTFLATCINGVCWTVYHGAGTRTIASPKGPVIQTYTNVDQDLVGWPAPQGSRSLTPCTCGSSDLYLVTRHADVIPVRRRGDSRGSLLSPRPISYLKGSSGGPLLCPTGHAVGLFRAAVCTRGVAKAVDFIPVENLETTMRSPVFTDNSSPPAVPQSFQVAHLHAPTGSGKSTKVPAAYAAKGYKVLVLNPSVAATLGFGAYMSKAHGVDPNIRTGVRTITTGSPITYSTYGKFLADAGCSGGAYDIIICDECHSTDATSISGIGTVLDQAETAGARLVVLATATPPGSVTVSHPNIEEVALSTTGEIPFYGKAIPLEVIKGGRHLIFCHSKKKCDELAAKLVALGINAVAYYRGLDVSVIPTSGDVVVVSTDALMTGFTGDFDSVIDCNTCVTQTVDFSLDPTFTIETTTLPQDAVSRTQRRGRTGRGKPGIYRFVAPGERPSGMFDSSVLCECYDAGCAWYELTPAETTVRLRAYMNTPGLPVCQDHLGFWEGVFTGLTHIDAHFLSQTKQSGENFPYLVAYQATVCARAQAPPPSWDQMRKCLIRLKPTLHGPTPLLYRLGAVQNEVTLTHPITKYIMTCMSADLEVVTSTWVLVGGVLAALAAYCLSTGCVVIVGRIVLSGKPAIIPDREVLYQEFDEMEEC
HCV NS3/4A protease complex, sequence (P27958 1027-1711, stated change not applied): as above

Work on C=CC1C[C@]1(NC(=O)[C@@H]1C[C@@H](Oc2cc(-c3ccccc3)nc3cc(OC)ccc23)CN1C(=O)[C@@H](NC(=O)OC(C)(C)C)C(C)(C)C)C(=O)NS(=O)(=O)C1CCCC1 (stereo in doubt) [Compound 12, {1-[2-(1-Cyclopentanesulfonylaminocarbonyl-2-vinylcyclopropylcarbamoyl)-4-(7-methoxy-2-phenylquinolin-4-yloxy)-pyrrolidine-1-carbonyl]-2,2-dimethylpropyl}carbamic acid tert-butyl ester] yielded an IC50 [1] of less than 0.5 µM and an EC50 [2] of less than 0.5 µM.
Compound C=C[C@@H]1C[C@]1(NC(=O)C1C[C@@H](Oc2cc(-c3ccccc3)nc3cc(OC)ccc23)CN1C(=O)[C@@H](NC(C)=O)C(C)(C)C)C(=O)NS(=O)(=O)C1CC1 (stereo partly drawn) [Compound 98, 1-(2S-Acetylamino-3,3-dimethyl-butyryl)-4R-(7-methoxy-2-phenyl-quinolin-4-yloxy)-pyrrolidine-2S-carboxylic acid (1R-cyclopropanesulfonylaminocarbonyl-2S-vinyl-cyclopropyl)amide] has an IC50 [1] of less than 0.05 µM and an EC50 [2] of less than 0.5 µM.
C=CCC[C@](C)(NC(=O)[C@@H]1C[C@@H](Oc2cc(-c3ccccc3)nc3cc(OC)ccc23)CN1C(=O)C(NC(=O)OC(C)(C)C)C(C)(C)C)C(=O)NS(=O)(=O)c1ccc(C)cc1 (some centres unmarked) [Compound 37] gave an IC50 [1] of less than 0.05 µM and an EC50 [2] of less than 0.05 µM.
CCC1C[C@]1(NC(=O)C1C[C@@H](Oc2cc(-c3ccccc3)nc3cc(OC)ccc23)CN1C(=O)[C@@H](NC(=O)OCCF)C(C)C)C(=O)NS(=O)(=O)C1CC1 (some centres unmarked) [Compound 9] was tested, and the IC50 [1] was less than 0.05 µM and the EC50 [2] was less than 0.5 µM.
With C=CC1C[C@]1(NC(=O)[C@@H]1C[C@@H](Oc2cc(-c3ccccc3)nc3cc(OC)ccc23)CN1C(=O)[C@@H](NC(=O)OC(C)(C)C)C(C)C)C(=O)NS(=O)(=O)C1CC1 (some centres unmarked) [Compound 31] the IC50 [1] was less than 0.05 µM and the EC50 [2] was less than 0.05 µM.
For COc1ccc2c(O[C@@H]3CC(C(=O)NC4(C(=O)NS(=O)(=O)C5CC5)CC4)N(C(=O)[C@@H](NC(=O)OC(C)(C)C)C(C)C)C3)cc(-c3ccccc3)nc2c1 (some centres unmarked) [Compound 21], the IC50 [1] was less than 0.05 µM and the EC50 [2] was less than 5 µM.
Work on C=C[C@@H]1C[C@]1(NC(=O)C1CC(Oc2cc(-c3ccccc3)nc3cc(OC)ccc23)CN1C(=O)[C@@H](NC(=O)OCC)C(C)(C)C)C(=O)NS(=O)(=O)C1CC1 (stereo partly drawn) [Compound 115, {1S-[2S-(1R-cyclopropanesulfonylaminocarbonyl-2S-vinyl-cyclopropylcarbamoyl)-4R-(7-methoxy-2-phenyl-quinolin-4-yloxy)-pyrrolidine-1-carbonyl]-2,2-dimethyl-propyl}-carbamic acid ethyl ester] yielded an IC50 [1] of less than 0.05 µM and an EC50 [2] of less than 0.05 µM.
C=C[C@@H]1C[C@]1(NC(=O)C1CC(Oc2cc(-c3ccccc3)nc3cc(OC)ccc23)CN1C(=O)[C@@H](NC(=O)C(=O)OC)C(C)(C)C)C(=O)NS(=O)(=O)C1CC1 (stereo partly drawn) [Compound 121, N-{1S-[2S-(1R-cyclopropanesulfonylaminocarbonyl-2S-vinyl-cyclopropylcarbamoyl)-4R-(7-methoxy-2-phenyl-quinolin-4-yloxy)-pyrrolidine-1-carbonyl]-2,2-dimethyl-propyl}-oxalamic acid methyl ester] gave an IC50 [1] of less than 0.05 µM and an EC50 [2] of less than 0.5 µM.
For C=CC1C[C@]1(NC(=O)[C@@H]1C[C@@H](Oc2cc(-c3ccccc3)nc3cc(OC)ccc23)CN1C(=O)C(NC(=O)OC(C)(C)C)C(C)(C)C)C(=O)NS(=O)(=O)c1ccccc1C (some centres unmarked) [Compound 63], the IC50 [1] was less than 0.05 µM and the EC50 [2] was less than 0.5 µM.
CCC1C[C@]1(NC(=O)[C@@H]1C[C@@H](Oc2cc(-c3ccccc3)nc3cc(OC)ccc23)CN1C(=O)[C@@H](NC(=O)OC(C)(C)C)C(C)C)C(=O)NS(=O)(=O)C1CC1 (stereo in doubt) [Compound 3, {1-[2-(1-cyclopropanesulfonylaminocarbonyl-2-ethylcyclopropylcarbamoyl)-4-(7-methoxy-2-phenylquinolin-4-yloxy)pyrrolidine-1-carbonyl]-2-methylpropyl}carbamic acid tert-butyl ester] gave an IC50 [1] of less than 0.05 µM and an EC50 [2] of less than 0.05 µM.
